Data reported in patent US11547681B2, “N-acylethanolamide derivatives and uses thereof” (ELIEM THERAPEUTICS, INC., priority 2016, dated 2023).

Legend:
[1] = Plasma stability (37° C., pH 7.4), mouse; type: in vitro ADME, CD-1 mouse; conditions: for half-life at 1 μM: male, CD-1, mouse, plasma, pH 7.4, mouse plasma; for % Remaining of Initial (n = 1), 0 min / % Remaining of Initial (n = 1), 15 min / % Remaining of Initial (n = 1), 30 min / % Remaining of Initial (n = 1), 60 min / % Remaining of Initial (n = 1), 120 min / % Remaining of Initial: mouse plasma; for % Remaining of Initial (n = 1), 0 min: pH 7.4, 0 min; for % Remaining of Initial (n = 1), 15 min: pH 7.4, 15 min; for % Remaining of Initial (n = 1), 30 min: pH 7.4, 30 min; for % Remaining of Initial (n = 1), 60 min: pH 7.4, 60 min; for % Remaining of Initial (n = 1), 120 min: pH 7.4, 120 min; for % Remaining of Initial: 1 μM, n = 1
Description: (§1) Studies were carried out in mixed-gender human plasma (Lot #GLP530-5), male Sprague-Dawley rat (Lot #RAT297944, RAT313140), male CD-1 mouse (Lot #MSE237700), and male Beagle dog (Lot #BGL87670, BGL82614), collected on sodium heparin. Plasma was adjusted to pH 7.4 prior to initiating the experiments. DMSO stocks were first prepared for the test articles. Aliquots of the DMSO solutions were dosed into 700 μL of plasma, which had been pre-warmed to 37° C., at a final test article concentration of 1 μM. […] Samples were stored at 4° C. until the end of the experiment. After the final time point was sampled, the plate was mixed and then centrifuged at 3,000 rpm for 10 minutes. Calibration standards were prepared in matched matrix. […] Analytical conditions are outlined in Appendix 8-1.
as §1, with “#AS1650-2),” for “#GLP530-5),”, “#RAT297944),” for “#RAT297944, RAT313140),”, “CD-I” for “CD-1”, “#BGL91384),” for “#BGL87670, BGL82614),”, “10-1.” for “8-1.”
(§2) Studies were carried out in mixed-gender human plasma (Lot #AS1650-2), male Sprague-Dawley rat (Lot #RAT297944), male CD-1 mouse (Lot #MSE237700), and male Beagle dog (Lot #BGL91384), collected on sodium heparin. Plasma was adjusted to pH 7.4 prior to initiating the experiments. DMSO stocks were first prepared for test articles. […] Samples were stored at 4° C. until the end of experiment. After the final time point was sampled, the plate was mixed and then centrifuged at 3,000 rpm for 10 minutes. Calibration standards were prepared in matched matrix. […] Analytical conditions are outlined in Appendix 13-1.
(§3) Studies were carried out in mixed-gender human plasma (Lot #AS 1650-2), male Sprague-Dawley rat (Lot #RAT320835), male CD-1 mouse (Lot #MSE260693), and 6 male Beagle dog (Lot #BGL91384), on sodium heparin. Plasma was adjusted to pH 7.4 prior to initiating the experiments. DMSO stocks were first prepared for the test articles. Aliquots of the DMSO solutions were dosed into 700 μL of plasma, which had been pre-warmed to 37° C., at a final test article concentration of 1 μM. […] Samples were stored at 4° C. until the end of the experiment. After the final time point was sampled, the plate was mixed and then centrifuged at 3,000 rpm for 10 minutes. Calibration standards were prepared in matched matrix. […] Analytical conditions are outlined in Appendix 17-1.

[2] = Plasma stability (37° C., pH 7.4), rat; type: in vitro ADME, Sprague-Dawley rat; conditions: for half-life at 1 μM: male, Sprague-Dawley, rat, plasma, pH 7.4, rat plasma, read-out: Half-life; for % Remaining of Initial (n = 1), 0 min / % Remaining of Initial (n = 1), 15 min / % Remaining of Initial (n = 1), 30 min / % Remaining of Initial (n = 1), 60 min / % Remaining of Initial (n = 1), 120 min / % Remaining of Initial: rat plasma; for % Remaining of Initial (n = 1), 0 min: pH 7.4, 0 min; for % Remaining of Initial (n = 1), 15 min: pH 7.4, 15 min; for % Remaining of Initial (n = 1), 30 min: pH 7.4, 30 min; for % Remaining of Initial (n = 1), 60 min: pH 7.4, 60 min; for % Remaining of Initial (n = 1), 120 min: pH 7.4, 120 min; for % Remaining of Initial: 1 μM, n = 1
Description: as §1
as §1, with “#AS1650-2),” for “#GLP530-5),”, “#RAT297944),” for “#RAT297944, RAT313140),”, “CD-I” for “CD-1”, “#BGL91384),” for “#BGL87670, BGL82614),”, “10-1.” for “8-1.”
as §2, §3

[3] = test article 1 μM, 37° C., pH 7.4, read-out: Half-life
[4] = test article 1 μM, 37° C., pH 7.4

half-life at 1 μM [1, 3] [min]	% Remaining of Initial (n = 1), 0 min ([1]; test article 1 μM, 37° C.) [%]	% Remaining of Initial (n = 1), 15 min ([1]; test article 1 μM, 37° C.) [%]	% Remaining of Initial (n = 1), 30 min ([1]; test article 1 μM, 37° C.) [%]	% Remaining of Initial (n = 1), 60 min ([1]; test article 1 μM, 37° C.) [%]	% Remaining of Initial (n = 1), 120 min ([1]; test article 1 μM, 37° C.) [%]	half-life at 1 μM [2, 4] [min]	% Remaining of Initial (n = 1), 0 min ([2]; test article 1 μM, 37° C.) [%]	% Remaining of Initial (n = 1), 15 min ([2]; test article 1 μM, 37° C.) [%]	% Remaining of Initial (n = 1), 30 min ([2]; test article 1 μM, 37° C.) [%]	% Remaining of Initial (n = 1), 60 min ([2]; test article 1 μM, 37° C.) [%]	% Remaining of Initial (n = 1), 120 min ([2]; test article 1 μM, 37° C.) [%]	also measured	Structure (SMILES)
62	100	72	71	56	21	49	100	58	59	46	18		CCCCCCCCCCCCCCCC(=O)NCCOC(=O)CCC [Compound I-2]
9.4	100	23	24	9.1	4.7	> 120	100	94	79	76	79		CCCCCCCCCCCCCCCC(=O)NCCOC(=O)CCC(=O)OCC(COC(=O)CCCCCCC)OC(=O)CCCCCCC (stereo not shown) [Compound I-3, PEA-Succinate-Glycerol-Di-Caprylic]
> 120	100	109	86	73	75	> 120	100	85	90	87	83	half-life at 1 μM ([1]; calculated value beyond duration of experiment, read-out: Half-life (min), calculated half-life in parentheses): 213 min	CC/C=C\C/C=C\C/C=C\C/C=C\C/C=C\CCCC(=O)OCCNC(=O)CCCCCCCCCCCCCCC [Compound I-5]
56	100	83	89	39	23	110	100	93	119	100	29		CCCCC/C=C\C/C=C\CCCCCCCC(=O)OCCNC(=O)CCCCCCCCCCCCCCC [Compound I-6]
< 1	100	<1.0	<1.0	<1.0	<1.0	< 1	100	<1.0	<1.0	<1.0	<1.0		CCCCCCCCCCCCCCCC(=O)NCCOC(=O)CCC(=O)OC[C@H]1O[C@@](CO)(O[C@H]2O[C@H](CO)[C@@H](O)[C@H](O)[C@H]2O)[C@@H](O)[C@@H]1O [Compound I-7]
												half-life at 1 μM ([1]; read-out: Half-life): < 1 min; % Remaining of Initial ([1]; 0 min): 100%; % Remaining of Initial ([1]; 15 min): <1.0%; % Remaining of Initial ([1]; 30 min): <1.0%; % Remaining of Initial ([1]; 60 min): <1.0%; % Remaining of Initial ([1]; 120 min): <1.0%; half-life at 1 μM [2]: < 1 min; % Remaining of Initial ([2]; 0 min): 100%; % Remaining of Initial ([2]; 15 min): <1.0%; % Remaining of Initial ([2]; 30 min): <1.0%; % Remaining of Initial ([2]; 60 min): <1.0%; % Remaining of Initial ([2]; 120 min): <1.0%	CCCCCCCCCCCCCCCC(=O)NCCOC(=O)CCC(=O)OC(CO)CO [Compound I-8]
13	100	49	17	2.3	<1.0	2.8	100	2.5	<1.0	<1.0	<1.0		CCCCCCCCCCCCCCCC(=O)NCCOC(=O)CCC(=O)OCC(O)CO (stereo not shown) [Compound I-9]
3	100	2.9	2.1	1.9	<1.0	5.6	100	9.0	23	<1.0	<1.0		CCCCCCCCCCCCCCCC(=O)NCCOC(=O)CCC(=O)OCC(COC(=O)CCC)OC(=O)CCC (stereo not shown) [Compound I-11]
